This test deals with T1, HEK cells stably transfected with tetracycline inducible hNR1 and hNR2A (Homo sapiens, UniProt Q05586+Q12879).
T1 construct: expressed in transfected cells; host or cells: HEK cells, stably transfected, tetracycline/doxycycline inducible
In words: Assay 1: Cell-Based Assay, cytosolic calcium response to positive allosteric modulators (with 30 μM glycine and 300 nM L-glutamate, EC30). The note with it: for Max %: responses scaled relative to 100 μM L-glutamate maximal response (100%) and 0 μM L-glutamate (0%); for EC50: cytosolic calcium response, with 30 μM glycine and 300 nM L-glutamate (EC30), — = no plateau was reached. On the procedure:
Assay 1: Cell-Based Assay
HEK cells stably transfected with tetracycline inducible hNR1 and hNR2A were seeded into clear bottom 384 well poly-D-lysine coated plates (2.5×10^4 cells per well) in Minimum Essential Media (MEM; without L-) including 7.5 μg mL^−1 doxycycline and 500 μM (+)-ketamine. The cells were incubated at 37° C. in 5% CO2 for 24 h. For measurement of changes in cytosolic calcium, the seeding media was removed and the cells incubated at 37° C. for 60 min with 1× Becton Dickinson Calcium Assay Kit reagent in Hanks Balanced Salt Solution (HBSS; w/o magnesium, including 1.8 mM calcium, 0.65 mg ml^−1 probenecid and 10 μM (+)-ketamine, pH 7.15) then allowed to equilibrate to rt for 30 min. Concentration-effect curves to Positive Allosteric Modulators (PAMs) were constructed by adding different concentrations (with 30 μM glycine and 300 nM L-glutamate (EC30)) to different wells in HBSS. Compounds were added after a 10 second baseline read and maximum level of relative fluorescence units (RFU) was measured over a 5 min period. Responses were scaled relative to 100 μM L-glutamate maximal response (100%) and 0 μM L-glutamate (0%). EC50 values are provided for compounds reaching maximal response plateaus, and the max % (EC50 (- -)) only if no plateau was reached.
A four-parameter Hill equation was fitted to individual concentration-effect curves:
[formula] in which Y, S0, Sinf, AC50, n and c were effect, lower-asymptote, upper-asymptote, mid-point location, slope parameter, and concentration respectively.

One may read the EC50 as the concentration at which the effect is half-maximal.

T1 sequence (Q12879 23-1464, other chains not shown): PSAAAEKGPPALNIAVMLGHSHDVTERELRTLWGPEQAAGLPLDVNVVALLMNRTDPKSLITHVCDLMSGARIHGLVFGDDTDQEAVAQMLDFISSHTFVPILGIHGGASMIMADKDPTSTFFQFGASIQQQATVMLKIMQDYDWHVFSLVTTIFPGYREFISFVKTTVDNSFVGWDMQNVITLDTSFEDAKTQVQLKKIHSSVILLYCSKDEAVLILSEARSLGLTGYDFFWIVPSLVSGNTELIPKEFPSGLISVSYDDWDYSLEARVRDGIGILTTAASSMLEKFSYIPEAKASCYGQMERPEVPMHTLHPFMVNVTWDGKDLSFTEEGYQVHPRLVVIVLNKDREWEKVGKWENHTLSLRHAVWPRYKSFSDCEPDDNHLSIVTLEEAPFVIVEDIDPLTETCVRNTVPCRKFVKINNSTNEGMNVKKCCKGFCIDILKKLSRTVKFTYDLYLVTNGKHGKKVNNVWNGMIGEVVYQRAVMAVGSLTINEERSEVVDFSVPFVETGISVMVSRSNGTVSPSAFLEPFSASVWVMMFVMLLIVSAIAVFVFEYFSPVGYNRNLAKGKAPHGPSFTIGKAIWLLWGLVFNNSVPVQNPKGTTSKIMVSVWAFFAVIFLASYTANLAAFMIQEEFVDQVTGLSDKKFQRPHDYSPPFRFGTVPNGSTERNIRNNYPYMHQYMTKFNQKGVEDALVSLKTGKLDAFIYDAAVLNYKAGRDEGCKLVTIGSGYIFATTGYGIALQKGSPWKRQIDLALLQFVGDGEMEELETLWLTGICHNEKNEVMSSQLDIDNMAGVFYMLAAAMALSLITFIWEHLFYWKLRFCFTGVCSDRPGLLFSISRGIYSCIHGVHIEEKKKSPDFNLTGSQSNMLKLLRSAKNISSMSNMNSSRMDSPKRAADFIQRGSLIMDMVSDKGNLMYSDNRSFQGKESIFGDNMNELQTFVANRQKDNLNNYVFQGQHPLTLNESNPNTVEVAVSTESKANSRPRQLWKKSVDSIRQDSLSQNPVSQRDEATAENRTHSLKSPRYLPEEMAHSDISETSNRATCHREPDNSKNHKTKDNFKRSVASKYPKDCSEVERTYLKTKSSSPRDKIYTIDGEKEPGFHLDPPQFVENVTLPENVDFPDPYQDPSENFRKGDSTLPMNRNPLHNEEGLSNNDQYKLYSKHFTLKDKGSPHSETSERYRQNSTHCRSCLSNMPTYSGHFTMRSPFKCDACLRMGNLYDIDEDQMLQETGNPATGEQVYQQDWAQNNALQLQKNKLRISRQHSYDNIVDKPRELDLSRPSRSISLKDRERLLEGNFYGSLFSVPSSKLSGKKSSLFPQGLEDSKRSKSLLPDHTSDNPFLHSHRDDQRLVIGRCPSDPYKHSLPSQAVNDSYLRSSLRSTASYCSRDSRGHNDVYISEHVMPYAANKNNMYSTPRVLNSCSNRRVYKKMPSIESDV

On to `Cc1sc2nc(Cc3ccnc(C#N)c3)cc(=O)n2c1[C@@H]1C[C@H]1CO` (relative stereo) [Example 20.12, 4-((3-(trans-2-(hydroxymethyl)cyclopropyl)-2-methyl-5-oxo-5H-thiazolo[3,2-a]pyrimidin-7-yl)methyl)picolinonitrile], for which the Max % (Table 2) worked out at 74%.
As to `Cc1sc2nc(Cc3cc(C#N)ccc3C3CC3)cc(=O)n2c1[C@@H]1C[C@H]1CO` (relative stereo) [Example 20.13, 4-cyclopropyl-3-((3-(trans-2-(hydroxymethyl)cyclopropyl)-2-methyl-5-oxo-5H-thiazolo[3,2-a]pyrimidin-7-yl)methyl)benzonitrile], for the setting “Table 2”, the EC50 amounted to 5800 nM and the Max % turned out to be 146%.
For `Cc1sc2nc(COc3ccc(F)cc3)cc(=O)n2c1C1CC1CO` (single isomer, unassigned) [Example 4.1, 7-(4-Fluorophenoxymethyl)-3-[trans-2-(hydroxymethyl)cyclopropyl]-2-methyl-5H-[1,3]thiazolo[3,2-a]pyrimidin-5-one], in that order: 5100 nM and 141%.
`Cc1sc2nc(COc3ccc(F)cc3)cc(=O)n2c1C1CC1CO` (single isomer, unassigned) [Example 4.2, 7-(4-Fluorophenoxymethyl)-3-[trans-2-(hydroxymethyl)cyclopropyl]-2-methyl-5H-[1,3]thiazolo[3,2-a]pyrimidin-5-one]: under “Table 2”, the EC50 amounted to 1300 nM and the Max % was determined as 137%.
Turning to `Cc1sc2nc(COc3ccc(F)cc3)cc(=O)n2c1C1CC1CO` (single isomer, unassigned) [Example 4.3, 7-(4-Fluorophenoxymethyl)-3-[trans-2-(hydroxymethyl)cyclopropyl]-2-methyl-5H-[1,3]thiazolo[3,2-a]pyrimidin-5-one], under “Table 2”, the concentration giving a half-maximal response (EC50) worked out at 20500 nM and the Max % is 71.6%.
In the case of `Cc1sc2nc(COc3ccc(F)cc3)cc(=O)n2c1C1CC1C#N` (single isomer, unassigned) [Example 4.19, cis-2-[7-(4-Fluorophenoxymethyl)-2-methyl-5-oxo-5H-[1,3]thiazolo[3,2-a]pyrimidin-3-yl]cyclopropane-1-carbonitrile], for the setting “Table 2”, the EC50 is 9000 nM and the Max % stood at 46.9%.
For the molecule `Cc1sc2nc(COc3ccc(F)cc3)cc(=O)n2c1C1CC1C#N` (single isomer, unassigned) [Example 4.20, cis-2-[7-(4-Fluorophenoxymethyl)-2-methyl-5-oxo-5H-[1,3]thiazolo[3,2-a]pyrimidin-3-yl]cyclopropane-1-carbonitrile], for the setting “Table 2”, the EC50 stood at 2400 nM and the Max % was found to be 93.9%.
In the case of `Cc1sc2nc(COc3ccc(F)cc3)cc(=O)n2c1[C@@H]1C[C@H]1C#N` (single isomer, unassigned) [Example 4.21, trans-2-[7-(4-Fluorophenoxymethyl)-2-methyl-5-oxo-5H-[1,3]thiazolo[3,2-a]pyrimidin-3-yl]cyclopropane-1-carbonitrile], for the setting “Table 2”, the concentration giving a half-maximal response (EC50) was found to be 16300 nM and the Max % is listed as 47.4%.
In the case of `Cc1sc2nc(COc3ccc(F)cc3)cc(=O)n2c1[C@@H]1C[C@H]1C#N` (single isomer, unassigned) [Example 4.22, trans-2-[7-(4-Fluorophenoxymethyl)-2-methyl-5-oxo-5H-[1,3]thiazolo[3,2-a]pyrimidin-3-yl]cyclopropane-1-carbonitrile], the Max % (Table 2) worked out at 84.2%.
With `CCN(Cc1cc(=O)n2c(C3CC3CO)c(C)sc2n1)c1ccc(F)cc1` (single isomer, unassigned) [Example 5.18, 7-((ethyl(4-fluorophenyl)amino)methyl)-3-(trans-2-(hydroxymethyl)cyclopropyl)-2-methyl-5H-thiazolo[3,2-a] pyrimidin-5-one], for the setting “Table 2”, the EC50 is 91 nM and the Max % is on record as 164%.
For `CCN(Cc1cc(=O)n2c(C3CC3CO)c(C)sc2n1)c1ccc(F)cc1` (single isomer, unassigned) [Example 5.19, 7-((ethyl(4-fluorophenyl)amino)methyl)-3-(trans-2-(hydroxymethyl)cyclopropyl)-2-methyl-5H-thiazolo[3,2-a] pyrimidin-5-one], in that order: 1700 nM and 141%.
For `Cc1sc2nc(CN(CCF)c3ccc(F)cc3)cc(=O)n2c1C1CC1CO` (single isomer, unassigned) [Example 5.42, 7-[[4-fluoro-N-(2-fluoroethyl)anilino]methyl]-3-trans-2-(hydroxymethyl)cyclopropyl]-2-methyl-thiazolo[3,2-a]pyrimidin-5-one], in that order: 32.9 nM and 162%.
For the molecule `Cc1sc2nc(CN(CCF)c3ccc(F)cc3)cc(=O)n2c1[C@@H]1C[C@H]1CO` (single isomer, unassigned) [Example 5.43, 7-[[4-fluoro-N-(2-fluoroethyl)anilino]methyl]-3-[trans-2-(hydroxymethyl)cyclopropyl]-2-methyl-thiazolo[3,2-a]pyrimidin-5-one], under “Table 2”, the 50% effective concentration (EC50) is 821 nM and the Max % stood at 145%.
In the case of `CCN(Cc1cc(=O)n2c3c(sc2n1)CCC3CO)c1ccc(F)cc1` (single isomer, unassigned) [Example 8.3, 6-[(N-ethyl-4-fluoro-anilino)methyl]-1-(hydroxymethyl)-2,3-dihydro-1H-cyclopenta[3,4]thiazolo[1,4-a]pyrimidin-8-one], where the note is “Table 2”, the EC50 is 1300 nM and the Max % amounted to 150%.
For `CCN(Cc1cc(=O)n2c3c(sc2n1)CCC3CO)c1ccc(F)cc1` (single isomer, unassigned) [Example 8.4, 6-[(N-ethyl-4-fluoro-anilino)methyl]-1-(hydroxymethyl)-2,3-dihydro-1H-cyclopenta[3,4]thiazolo[1,4-a]pyrimidin-8-one], where the note is “Table 2”, the 50% effective concentration (EC50) was found to be 569 nM and the Max % worked out at 164%.
The corresponding values for `CCN(Cc1cc(=O)n2c(C(O)CCO)c(C)sc2n1)c1ccc(F)cc1` (single isomer, unassigned) [Example 12.3, 3-(1,3-dihydroxypropyl)-7-[(N-ethyl-4-fluoro-anilino)methyl]-2-methyl-thiazolo[3,2-a]pyrimidin-5-one] are 1600 nM and 183%.
The corresponding values for `CCN(Cc1cc(=O)n2c(C(O)CCO)c(C)sc2n1)c1ccc(F)cc1` (single isomer, unassigned) [Example 12.4, 3-(1,3-dihydroxypropyl)-7-[(N-ethyl-4-fluoro-anilino)methyl]-2-methyl-thiazolo[3,2-a]pyrimidin-5-one] are 591 nM and 176%.
Take `Cc1cc(C2CC2)n(Cc2cc(=O)n3c([C@@H]4C[C@H]4CO)c(C)sc3n2)n1` (single isomer, unassigned) [Example 15.13, 7-[(5-cyclopropyl-3-methyl-pyrazol-1-yl)methyl]-3-[2-(hydroxymethyl)cyclopropyl]-2-methyl-thiazolo[3,2-a]pyrimidin-5-one]: the Max % (Table 2) came to 67.6%.
Consider `Cc1cc(C2CC2)n(Cc2cc(=O)n3c([C@@H]4C[C@H]4CO)c(C)sc3n2)n1` (single isomer, unassigned) [Example 15.14, 7-[(5-cyclopropyl-3-methyl-pyrazol-1-yl)methyl]-3-[2-(hydroxymethyl)cyclopropyl]-2-methyl-thiazolo[3,2-a]pyrimidin-5-one], for which, for the setting “Table 2”, the EC50 stood at 3100 nM and the Max % is listed as 159%.
As for `Cc1sc2nc(Cn3nc(C4CC4)cc3C)cc(=O)n2c1[C@@H]1C[C@H]1CO` (single isomer, unassigned) [Example 15.15, 7-[(3-cyclopropyl-5-methyl-pyrazol-1-yl)methyl]-3-[2-(hydroxymethyl)cyclopropyl]-2-methyl-thiazolo[3,2-a]pyrimidin-5-one], under “Table 2”, the Max % is 61.9%.
Take `Cc1sc2nc(Cn3nc(C4CC4)cc3C)cc(=O)n2c1C1CC1CO` (single isomer, unassigned) [Example 15.16, 7-[(3-cyclopropyl-5-methyl-pyrazol-1-yl)methyl]-3-[2-(hydroxymethyl)cyclopropyl]-2-methyl-thiazolo[3,2-a]pyrimidin-5-one]: for the setting “Table 2”, the 50% effective concentration (EC50) is 17700 nM and the Max % amounted to 115%.
On to `Cc1sc2nc(Cn3nc(C(F)(F)F)cc3Cl)cc(=O)n2c1C1CC1C#N` (single isomer, unassigned) [compound 125], for which the EC50 (Table 3) was 27.8 nM.
Same read-out and setting: to `Cc1sc2nc(Cn3nc(C(F)(F)F)cc3Cl)cc(=O)n2c1[C@@H]1C[C@@H]1C#N` (single isomer, unassigned) [compound 126] belongs 249 nM; to `Cc1sc2nc(Cn3nc(C(F)(F)F)cc3Cl)cc(=O)n2c1C1CC1CO` (single isomer, unassigned) [compound 136], 39.1 nM; to `Cc1sc2nc(Cn3nc(C(F)(F)F)cc3Cl)cc(=O)n2c1C1CC1CO` (single isomer, unassigned) [compound 137], 420 nM.
The same measure, in the same setting: for `Cc1sc2nc(Cn3nc(C(F)(F)F)cc3Cl)cc(=O)n2c1C1CC1C` (single isomer, unassigned) [compound 154] the value was 504 nM.

Source of the values: patent publication US9988400B2 (Genentech, Inc., priority 2013, dated 2018).
